Measurements: patent US12252524B2, “GIP/GLP1 co-agonist compounds” (Eli Lilly and Company, priority 2018, dated 2025)
Numbered stars: 1 amine (or outer) side, 2 acyl side, 3 side chain; on linkers, the order of the positions; unused ones are H or OH. Square brackets hold non-standard residues; d marks the D form. Side chains are listed from the residue outwards. Peptide text beside a SMILES is read from it. * marks the point of attachment. C20 diacid = O=C(O)CCCCCCCCCCCCCCCCCCC(=O)*; C18 diacid = O=C(O)CCCCCCCCCCCCCCCCC(=O)*; γGlu = O=C(O)[C@H](CCC(=O)[*:2])N[*:1]; αMeF = C[C@](N)(Cc1ccccc1)C(=O)O; αMeL = CC(C)C[C@](C)(N)C(=O)O; AEEA = NCCOCCOCC(=O)O; Aib = CC(C)(N)C(=O)O

Experiments:
human GLP-1R [1] = target: T1, human GLP-1R (Homo sapiens, UniProt P43220); assay: GLP-1R CHO cell β-arrestin recruitment assay; type: cell-based; design: host or cells: CHO-K1 PathHunter cells, assay-ready frozen; conditions: for EC50: CHO-K1 cells, PathHunter β-arrestin-2 recruitment, 0.1% casein, read-out: hGLP1R B-Arrestin2 Rel EC50 uM (SEM, n); for hGLP1R B-Arrestin2 % Top: normalized to GLP-1 maximum control
Summary of the method: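 PathHunter CHO-K1 cells with ProLink-tagged human GLP-1R and enzyme-acceptor-tagged β-arrestin-2 treated with serially diluted peptides in assay buffer containing 0.1% hydrolyzed casein, 90 min at 37 °C.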

human GLP-1R [2] = target: T1, human GLP-1R; assay: [125I]-GLP-1 binding (SPA), human GLP-1 receptor; design: expressed in transfected cells; crude membranes; conditions: read-out: hGLP1R Ki, (nM) (SEM, n)
Summary of the method: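 Frozen cell pellets are lysed on ice in hypotonic Tris buffer, pH 7.5, homogenized, and centrifuged to a membrane pellet resuspended at about 1 to 3 mg/mL. Binding is then measured in HEPES-based buffer at pH 7.4, and curves are fitted to give IC50 and Ki.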

[3] = target: T2, gastric inhibitory peptide receptor (GIPR) (Homo sapiens, UniProt P48546); assay: cAMP pharmacological functional assay in presence of casein, hGIPR; type: cell-based; conditions: HEK293 cells expressing hGIPR, 0.1% Casein, geometric mean; read-out: hGIPR cAMP Rel EC50 nM (SEM, n)
T2 sequence (P48546 22-466): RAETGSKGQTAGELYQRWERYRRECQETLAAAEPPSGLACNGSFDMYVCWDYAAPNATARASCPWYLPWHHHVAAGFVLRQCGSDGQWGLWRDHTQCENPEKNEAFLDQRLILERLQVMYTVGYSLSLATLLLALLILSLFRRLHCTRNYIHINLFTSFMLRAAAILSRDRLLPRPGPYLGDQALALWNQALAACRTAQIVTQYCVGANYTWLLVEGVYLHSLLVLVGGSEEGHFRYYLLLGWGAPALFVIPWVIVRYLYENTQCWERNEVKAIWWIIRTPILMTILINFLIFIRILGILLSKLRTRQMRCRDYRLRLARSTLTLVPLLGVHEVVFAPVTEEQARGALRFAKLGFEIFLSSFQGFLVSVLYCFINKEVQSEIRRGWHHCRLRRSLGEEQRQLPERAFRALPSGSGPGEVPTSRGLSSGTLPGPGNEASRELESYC

human GIP receptor = target: T3, human GIP receptor (Homo sapiens, UniProt P48546); assay: [125I]-GIP binding (SPA), human GIP receptor; conditions: read-out: hGIPR Ki, nM (SEM, n)
T3 construct: expressed in transfected cells; crude membranes
T3 sequence (P48546 22-466): T2 sequence (P48546 22-466)

human GLP-1R [4] = target: T1, human GLP-1R; assay: GLP-1R HEK293 cell membrane [35S]GTPγS binding assay; type: biochemical; design: expressed in transfected cells; host or cells: HEK293 cells expressing human GLP-1R; membranes; conditions: HEK293 cell membranes expressing human GLP-1R, [35S]GTPγS binding; read-out: hGLP1R GTPgS Rel EC50 nM (SEM, n)
Summary of the method: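 Membranes from HEK293 cells expressing the receptor incubated with peptide and […] [35S]GTPγS in HEPES pH 7.4 buffer with NaCl, MgCl2, saponin and BSA, 30 min at room temperature. Gαs-bound label captured by anti-Gαs antibody/SPA beads and counted; EC50 from four-parameter logistic fit.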

T1 sequence (P43220 24-463): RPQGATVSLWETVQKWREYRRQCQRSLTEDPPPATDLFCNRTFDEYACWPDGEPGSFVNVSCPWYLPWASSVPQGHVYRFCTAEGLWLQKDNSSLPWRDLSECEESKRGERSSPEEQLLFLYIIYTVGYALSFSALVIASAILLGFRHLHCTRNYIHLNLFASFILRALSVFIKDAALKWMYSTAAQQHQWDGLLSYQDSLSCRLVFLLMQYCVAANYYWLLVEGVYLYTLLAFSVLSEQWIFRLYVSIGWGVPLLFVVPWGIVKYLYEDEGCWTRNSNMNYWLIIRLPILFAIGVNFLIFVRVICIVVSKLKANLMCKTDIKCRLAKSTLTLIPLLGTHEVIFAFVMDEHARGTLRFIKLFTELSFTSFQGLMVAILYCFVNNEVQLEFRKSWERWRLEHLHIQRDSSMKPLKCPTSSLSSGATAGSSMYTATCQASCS

CC[C@H](C)[C@H](NC(=O)[C@H](CC(C)C)NC(=O)[C@H](Cc1ccc(O)cc1)NC(=O)[C@H](CCC(=O)O)NC(=O)[C@@H](NC(=O)[C@H](Cc1ccccc1)NC(=O)[C@H](CCC(=O)O)NC(=O)C(C)(C)NC(=O)[C@H](CCC(N)=O)NC(=O)[C@H](C)NC(=O)[C@H](CCCCNC(=O)COCCOCCNC(=O)COCCOCCNC(=O)CC[C@H](NC(=O)CCCCCCCCCCCCCCCCCCC(=O)O)C(=O)O)NC(=O)[C@H](CCCCN)NC(=O)[C@H](CC(=O)O)NC(=O)[C@H](CC(C)C)NC(=O)[C@](C)(CC(C)C)NC(=O)[C@@H](NC(=O)[C@H](CO)NC(=O)[C@H](Cc1ccc(O)cc1)NC(=O)[C@H](CC(=O)O)NC(=O)[C@H](CO)NC(=O)[C@@H](NC(=O)[C@H](Cc1ccccc1)NC(=O)[C@@H](NC(=O)CNC(=O)[C@H](CCC(=O)O)NC(=O)C(C)(C)NC(=O)[C@@H](N)Cc1ccc(O)cc1)[C@@H](C)O)[C@@H](C)O)[C@@H](C)CC)[C@@H](C)CC)C(=O)N[C@@H](C)C(=O)NCC(=O)NCC(=O)N1CCC[C@H]1C(=O)N[C@@H](CO)C(=O)N[C@@H](CO)C(=O)NCC(=O)N[C@@H](C)C(=O)N1CCC[C@H]1C(=O)N1CCC[C@H]1C(=O)N1CCC[C@H]1C(=O)N[C@@H](CO)C(N)=O [Example 289] (H-Y[Aib]EGTFTSDYSI[αMeL]LDKK([AEEA-AEEA-γGlu-C20 diacid])AQ[Aib]EFIEYLIAGGPSSGAPPPS-NH2)
EC50 (human GLP-1R [1]): 0.0124 µM
hGLP1R B-Arrestin2 % Top (human GLP-1R [1]): 51.3%
Ki (human GLP-1R [2]): 2.63 nM
EC50 [3]: 0.0228 nM
Ki (human GIP receptor): 0.0457 nM
EC50 (human GLP-1R [4]): 0.404 nM

CC[C@H](C)[C@H](NC(=O)[C@H](CC(C)C)NC(=O)[C@H](Cc1ccc(O)cc1)NC(=O)[C@H](CCC(=O)O)NC(=O)[C@@H](NC(=O)[C@H](Cc1ccccc1)NC(=O)[C@H](C)NC(=O)C(C)(C)NC(=O)[C@H](CCC(N)=O)NC(=O)[C@H](C)NC(=O)[C@H](CCCCNC(=O)COCCOCCNC(=O)COCCOCCNC(=O)CC[C@H](NC(=O)CCCCCCCCCCCCCCCCC(=O)O)C(=O)O)NC(=O)[C@H](CCCCN)NC(=O)[C@H](CC(=O)O)NC(=O)[C@H](CC(C)C)NC(=O)[C@H](CC(C)C)NC(=O)[C@@H](NC(=O)[C@H](CO)NC(=O)[C@H](Cc1ccc(O)cc1)NC(=O)[C@H](CC(=O)O)NC(=O)[C@H](CO)NC(=O)[C@@H](NC(=O)[C@](C)(Cc1ccccc1)NC(=O)[C@@H](NC(=O)CNC(=O)[C@H](CCC(=O)O)NC(=O)C(C)(C)NC(=O)[C@@H](N)Cc1ccc(O)cc1)[C@@H](C)O)[C@@H](C)O)[C@@H](C)CC)[C@@H](C)CC)C(=O)N[C@@H](CCC(=O)O)C(=O)NCC(=O)NCC(=O)N1CCC[C@H]1C(=O)N[C@@H](CO)C(=O)N[C@@H](CO)C(=O)NCC(N)=O [Example 301] (H-Y[Aib]EGT[αMeF]TSDYSILLDKK([AEEA-AEEA-γGlu-C18 diacid])AQ[Aib]AFIEYLIEGGPSSG-NH2)
EC50 (human GLP-1R [1]): 0.00267 µM
hGLP1R B-Arrestin2 % Top (human GLP-1R [1]): 93.7%
Ki (human GLP-1R [2]): 0.875 nM
EC50 [3]: 0.0346 nM
Ki (human GIP receptor): 0.0273 nM
EC50 (human GLP-1R [4]): 0.435 nM

CC[C@H](C)[C@H](NC(=O)[C@H](CC(C)C)NC(=O)[C@H](Cc1ccc(O)cc1)NC(=O)[C@H](CCC(=O)O)NC(=O)[C@@H](NC(=O)[C@H](Cc1ccccc1)NC(=O)[C@H](C)NC(=O)C(C)(C)NC(=O)[C@H](CCC(N)=O)NC(=O)[C@H](C)NC(=O)[C@H](CCCCNC(=O)COCCOCCNC(=O)COCCOCCNC(=O)CC[C@H](NC(=O)CCCCCCCCCCCCCCCCC(=O)O)C(=O)O)NC(=O)[C@H](CCC(=O)O)NC(=O)[C@H](CC(=O)O)NC(=O)[C@H](CC(C)C)NC(=O)[C@](C)(CC(C)C)NC(=O)[C@@H](NC(=O)[C@H](CO)NC(=O)[C@H](Cc1ccc(O)cc1)NC(=O)[C@H](CC(=O)O)NC(=O)[C@H](CO)NC(=O)[C@@H](NC(=O)[C@H](Cc1ccccc1)NC(=O)[C@@H](NC(=O)CNC(=O)[C@H](CCC(=O)O)NC(=O)C(C)(C)NC(=O)[C@@H](N)Cc1ccc(O)cc1)[C@@H](C)O)[C@@H](C)O)[C@@H](C)CC)[C@@H](C)CC)C(=O)N[C@@H](CCC(=O)O)C(=O)NCC(=O)NCC(=O)N1CCC[C@H]1C(=O)N[C@@H](CO)C(=O)N[C@@H](CO)C(=O)NCC(N)=O [Example 303] (H-Y[Aib]EGTFTSDYSI[αMeL]LDEK([AEEA-AEEA-γGlu-C18 diacid])AQ[Aib]AFIEYLIEGGPSSG-NH2)
EC50 (human GLP-1R [1]): 0.0179 µM
hGLP1R B-Arrestin2 % Top (human GLP-1R [1]): 47.7%
Ki (human GLP-1R [2]): 3.69 nM
EC50 [3]: 0.0254 nM
Ki (human GIP receptor): 0.058 nM
EC50 (human GLP-1R [4]): 0.547 nM

CC[C@H](C)[C@H](NC(=O)[C@H](CC(C)C)NC(=O)[C@H](Cc1ccc(O)cc1)NC(=O)[C@H](CCC(=O)O)NC(=O)[C@@H](NC(=O)[C@H](Cc1ccccc1)NC(=O)[C@H](C)NC(=O)C(C)(C)NC(=O)[C@H](CCC(N)=O)NC(=O)[C@H](C)NC(=O)[C@H](CCCCNC(=O)COCCOCCNC(=O)COCCOCCNC(=O)CC[C@H](NC(=O)CCCCCCCCCCCCCCCCC(=O)O)C(=O)O)NC(=O)[C@H](CCCCN)NC(=O)[C@H](CC(=O)O)NC(=O)[C@H](CC(C)C)NC(=O)[C@H](CC(C)C)NC(=O)[C@@H](NC(=O)[C@H](CO)NC(=O)[C@H](Cc1ccc(O)cc1)NC(=O)[C@H](CC(=O)O)NC(=O)[C@H](CO)NC(=O)[C@@H](NC(=O)[C@H](Cc1ccccc1)NC(=O)[C@@H](NC(=O)CNC(=O)[C@H](CCC(=O)O)NC(=O)C(C)(C)NC(=O)[C@@H](N)Cc1ccc(O)cc1)[C@@H](C)O)[C@@H](C)O)[C@@H](C)CC)[C@@H](C)CC)C(=O)N[C@@H](C)C(=O)NCC(=O)NCC(=O)N1CCC[C@H]1C(=O)N[C@@H](CO)C(=O)N[C@@H](CO)C(=O)NCC(=O)N[C@@H](C)C(=O)N1CCC[C@H]1C(=O)N1CCC[C@H]1C(=O)N1CCC[C@H]1C(=O)N[C@@H](CO)C(N)=O [Example 316] (H-Y[Aib]EGTFTSDYSILLDKK([AEEA-AEEA-γGlu-C18 diacid])AQ[Aib]AFIEYLIAGGPSSGAPPPS-NH2)
EC50 (human GLP-1R [1]): 0.00608 µM
hGLP1R B-Arrestin2 % Top (human GLP-1R [1]): 26.1%
Ki (human GLP-1R [2]): 0.957 nM
EC50 [3]: 0.024 nM
Ki (human GIP receptor): 0.0418 nM
EC50 (human GLP-1R [4]): 0.766 nM
